Assay results as given in US7157580B2, “Aminopyrimidine and aminopyridine anti-inflammation agents” (Roche Palo Alto LLC, priority 2001, dated 2007).

melting point: 203.6 to 206 °C
Structure (SMILES): Cn1cncc1-c1cc(/C=N/N(CCC(C)(C)O)C(N)=S)nc(NC2CCN(S(C)(=O)=O)CC2)n1 [Compound 96, 2-(1-methanesulfonyl-piperidin-4-ylamino)-6-(1-methyl-1H-imidazol-5-yl)-pyrimidine-4-carbaldehyde 2-(2-hydroxy-2-methyl-but-4-yl)-thiosemicarbazone]
